Experimental data taken from patent US9573907B2, “2, 4-pyrimidine derivatives and use thereof” (SNU R&DB FOUNDATION, priority 2009, dated 2017).
Entries after “also recorded” stand apart in the source; their conditions may differ.

Key:
[1] = target: interaction of gp96 and AIMP1 (Mus musculus, UniProt P08113); assay: ELISA assay of gp96-AIMP1 interaction; format: binding, murine; settings: read-out: Inhibition rate (at 100 nM; %)
Protocol: FIGS. 1 to 9 represent suppression of cell surface gp96 by GPM1 reduces DC maturation and B220^+ population in gp96tm transgenic mice. (FIG. 1) Chemical structure of GPM1 (Formula 2) and negative control (NC1, Formula 16) used in this study. (FIG. 2) The dose-dependent effect of GPM1 or NC1 on the AIMP1-gp96 interaction using ELISA method as described. The indicated concentrations of the two compounds and biotin-conjugated murine gp96 were added to AIMP1 coated on the surface of microtiter wells, and gp96 bound to AIMP1 was detected with strepavidin-conjugated peroxidase. (FIG. 3) The binding of GPM1 to gp96 was examined by surface plasmon resonance (SPR). GPM1 at the indicated concentrations was injected to immobilized gp96 and the binding was measured using Biacore 3000. The response data were processed using data from a reference surface and buffer injections. Each concentration was tested in triplicate. (FIG. 4) RAW24.7 cells were treated with 10 μM GPM1 for 24 h. Cell lysates were immunoprecipitated with control IgG or anti-gp96 antibody and the immunoprecipitated proteins were immunoblotted with anti-KDELR1, antiAIMP1 and gp96 antibodies. WCL means whole cell lysate. (FIG. 5) Splenocytes isolated from C57BL/6 mice were treated with vehicle (5% DMSO in PBS), GPM1, or NC1 (10 μM, 24 h), stained for cell surface gp96, and followed by flow cytometry. (FIG. 6) AIMP1^+/+ or AIMP1^−/− mouse splenocytes (2×10^5 cells) were treated with vehicle, GPM1, or NC1 (10 μM, 24 h), fixed, and then co-cultured with WT bone marrow-derived DCs (1×10^4 cells) for 16 h. TNFα secreted from BMDCs was quantified by ELISA. (FIG. 7) Percentage of gp96^+ MHC class II^+ cell population in splenocytes from gp96tm transgenic female mice treated with vehicle (control) (n=9), GPM1 (n=9), and dexamethasone (n=7) at 30 mg/kg. (FIG. 8) Cell surface ICOSL of CD11b^+CD11c^+ (myeloid DCs), CD11b^−CD11c^+ (lymphoid DCs), and CD11b^+CD11c^− (macrophages) cell populations in splenocytes from gp96tm transgenic female mice treated with vehicle (n=9) and GPM1 (n=9) at 30 mg/kg. (FIG. 9) Percentage of B220^+, MHC class II^+, CD4^+, CD8^+, CD4 and CD8 double negative cell populations in splenocytes from gp96tm transgenic female mice treated with vehicle (n=9), GPM1 (n=9), and dexamethasone (n=7) at 30 mg/kg. Student t-test P values comparing GPM1-treated mice with control are indicated.
96-well plates (Maxisorp., F96; Nunc) were coated with 500 ng/well AIMP1 in PBS (pH 7.4). After washing, the remaining sites were blocked with PBS containing 1% BSA for 1 h. Binding of 10 ng/well biotin-conjugated gp96 was performed in Tris buffer (25 mM Tris, 10 mM NaCl and 0.4% Triton X-100). Each of the 6,580 compounds was added to the well at 100 nM and the plates were washed and incubated with HRP conjugated streptavidin in PBS containing 0.1% BSA and 0.1% Tween 20 for 30 min. The plates were washed, and then substrate was added to each well. The absorbance was monitored at 450 nm.
To identify chemicals that can affect membrane translocation of gp96, the present inventors employed the interaction of gp96 with AIMP1 as the screening target. For this screening, the present inventors chose 6,482 chemicals with different pharmacophore representing 150,000 different chemicals deposited in Korea Chemical Bank and identified the compounds that can inhibit the interaction of the two proteins. For the screening, the present inventors set up a modified ELISA method using recombinant AIMP1 and gp96 proteins as described in Experimental methods. Each of the tested compounds gave different effect on the interaction of the two proteins (FIG. 19). And the present inventors have selected 12 compounds that inhibited the interaction more than 95% of the control at 0.1 μM (Table 1). The present inventors obtained 1251 additional compounds derived from these 12 initial hits and tested them again for their activities against the gp96-AIMP1 interaction.

HL-60 cell lines = assay: FACS analysis of gp96 on cell surface of HL-60 cell lines; format: cell-based; settings: 1 mM, 24 hours
Protocol: FIG. 35 is a graph showing an FACS analysis result using gp96 antibody, on the amount of gp96 protein existing on a cell surface, when HL-60 cell lines were treated with a 2,4-pyrimidine derivatives at a concentration of 1 mM for 24 hours.
Also, HL-60 cell lines were treated with a 2,4-pyrimidine derivative at a concentration of 1 mM for 24 hours, and the amount of gp96 protein existing on a cell surface was analyzed through flow cytometry (FACS) using gp96 antibody.

gp96tm transgenic mice = system: gp96tm transgenic mice
Protocol: Female gp96tm transgenic mice (Proc Natl Acad Sci USA. 2003 December 23; 100(26): 15824-15829) were bred and maintained at the animal center for pharmaceutical research, Seoul National University. We used age-matched, 12-26 weeks old mice in each experimental group. To suppress cell surface gp96 we used GPM1 compound. Dexamethasone and GPM1 were dissolved in 5% DMSO in phosphate-buffered saline (PBS) and control vehicle was 5% DMSO in PBS. Compounds were administered i.p. every 24 h for 2 months (30 mg/kg/day). Three groups of each 9 mice were examined. All procedures were conducted in accordance with the Guide for the Care and Use of Laboratory Animals, published by the Korean National Institute of Health.
Spleen and lymph node cell suspensions were prepared by grindling tissue through sterile mesh and erythrocytes were lysed with RBC lysis buffer (eBioscience, CA). For surface staining, antibodies were fluoresceinisothiocyanate (FITC)-, phycoerythrin (PE)-, PerCP-, or APC-conjugated. Antibodies used were CD4 (RM4-5, H129.12), CD8 (53-6,7), B220 (RA3-6B2), CD11b (M1/70), CD11c (HL3), CD44 (IM7), CD62L (MEL-14), CD69 (H1.2F3), CD25 (PC61.5), IgM (11/41), IgD (11-26C.2a) (BD Pharmingen, CA), MHC class II (M5/114.15.2), Foxp3 (FJK-16s) (eBioscience, CA), and gp96 (Santacruz, Calif.). After staining, cells were washed and analyzed on a FACS can flow cytometer using CellQuest software (BD Bioscience, Mountain View, Calif.).
Kidney tissue sections of gp96tm transgenic mice were fixed in 10% formaldehyde in PBS and dehydrated using an alcohol gradient. After paraffin infiltration, the tissues were sectioned using a microtome, stained with hematoxylin and eosin (H&E) and analyzed by light microscopy. For immunofluorescent staining, kidneys were sectioned with a cryostat. These cryosections were blocked with normal goat serum, stained with FITC-conjugated goat anti-mouse Ig (BD pharmingen, CA), and then observed by fluorescent microscopy.
The present inventors compared the effect of GPM1 with phosphate-buffered saline containing 5% DMSO and dexamethasone (Dex), an immunosuppressant of glucocorticoid family as negative and positive control, respectively. Each group consisted of age-matched nine female mice. […] After 2 month, the present inventors isolated MHC class II^+ splenocytes and lymph nodes from vehicle-, Dex-, and GPM1-treated mice and determined the portion of gp96^+ cells by flow cytometry.

Chain of interaction of gp96 and AIMP1 (P08113 22-802): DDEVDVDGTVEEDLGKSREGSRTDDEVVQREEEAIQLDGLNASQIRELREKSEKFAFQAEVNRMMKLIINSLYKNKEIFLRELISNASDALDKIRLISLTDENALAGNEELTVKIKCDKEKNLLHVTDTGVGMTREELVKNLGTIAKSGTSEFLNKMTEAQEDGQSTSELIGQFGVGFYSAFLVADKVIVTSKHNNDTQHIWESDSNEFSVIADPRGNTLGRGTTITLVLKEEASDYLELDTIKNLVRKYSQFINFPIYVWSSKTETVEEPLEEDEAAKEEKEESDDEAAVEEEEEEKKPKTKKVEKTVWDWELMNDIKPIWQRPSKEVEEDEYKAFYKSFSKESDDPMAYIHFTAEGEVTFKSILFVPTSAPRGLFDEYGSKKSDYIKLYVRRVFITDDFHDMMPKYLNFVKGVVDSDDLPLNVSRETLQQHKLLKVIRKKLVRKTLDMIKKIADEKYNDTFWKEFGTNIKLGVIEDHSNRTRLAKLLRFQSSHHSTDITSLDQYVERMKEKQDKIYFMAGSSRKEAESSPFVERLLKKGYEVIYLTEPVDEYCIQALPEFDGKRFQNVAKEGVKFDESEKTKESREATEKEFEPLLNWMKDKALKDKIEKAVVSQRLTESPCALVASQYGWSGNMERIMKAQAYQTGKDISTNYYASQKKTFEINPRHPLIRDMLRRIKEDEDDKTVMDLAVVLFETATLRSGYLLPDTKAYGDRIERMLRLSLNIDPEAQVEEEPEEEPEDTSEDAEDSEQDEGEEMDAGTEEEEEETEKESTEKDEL

| inhibition at 0.1 µM [1] [%] | Compound | amount of gp96 protein existing on a cell surface (HL-60 cell lines) | other results |
| --- | --- | --- | --- |
| 30 | COc1cc(OC)nc(O[C@@H](C(=O)O)c2ccccc2)n1 [Formula 8, (R)-2-(4,6-dimethoxypyrimidin-2-yloxy)-2-phenylacetic acid] |  |  |
|  | 2-(4,6-dimethoxy-pyrimidin-2-yloxy)-N-isopropyl-3-methyl-butyl amide [KR-S-005] | better effects than KR-S-015; also recorded: better than ester (KR-S-010) or acid (KR-S-009) |  |
|  | COC(=O)[C@H](C)Oc1nc(OC)cc(OC)n1 [KR-S-011, L-2-(4,6-Dimethoxy-pyrimidin-2-yloxy)-propionic acid methyl ester] | better effects than KR-S-015; also recorded: better than isopropyl (KR-S-009, KR-S-010) |  |
|  | C[C@@H]1C[C@H]2[C@@H]3CCC4=CC(=O)C=C[C@]4(C)[C@@]3(F)[C@@H](O)C[C@]2(C)[C@@]1(O)C(=O)CO [dexamethasone, reference compound] |  | adverse effects / death during administration (gp96tm transgenic mice; 2-month intraperitoneal administration, 30 mg/kg): two of nine; total cell count (spleen) (gp96tm transgenic mice; mouse, in vivo, 30 mg/kg/day): 4.80 ± 2.38 × 10^5; percentages of gp96+ MHC class II+ cells (gp96tm transgenic mice; splenocytes, after 2 month, 30 mg/kg): ~25% |
|  | COc1cc(OC)nc(O[C@H](C(=O)O)C(C)C)n1 [KR-S-022, L-2-(4,6-Dimethoxy-pyrimidin-2-yloxy)-3-methyl-butyric acid] | better effects than KR-S-015 |  |
|  | COC(=O)C(C)(C)Oc1nc(OC)cc(OC)n1 [KR-S-013, 2-(4,6-Dimethoxy-pyrimidin-2-yloxy)-2-methyl-propionic acid methyl ester] | better effects than KR-S-015 |  |
|  | COc1cc(OC)nc(O[C@H](C)C(=O)O)n1 [KR-S-023, D-2-(4,6-Dimethoxy-pyrimidin-2-yloxy)-propionic acid] | better effects than KR-S-015; also recorded: better than isopropyl (KR-S-009, KR-S-010) |  |
| 84 | Oc1nc(Oc2ccc(F)c(C(F)(F)F)c2)cc(Oc2ccc(F)c(C(F)(F)F)c2)n1 [Formula 14, 4,6-bis(4-fluoro-3-(trifluoromethyl)phenoxy)pyrimidin-2-ol] |  |  |
| 94 | COC(=O)C(Oc1nc(OC)cc(OC)n1)c1ccc(Br)cc1 (stereo not shown) [Formula 4, methyl 2-(4-bromophenyl)-2-(4,6-dimethoxypyrimidin-2-yloxy)acetate] |  |  |
|  | COc1cc(OC)nc(OC(C(=O)N(C)OC)C(C)C)n1 (stereo not shown) [KR-S-006, 2-(4,6-dimethoxy-pyrimidin-2-yloxy)-N-methoxy-3,N-dimethyl-butyl amide] | better effects than KR-S-015; also recorded: better than ester (KR-S-010) or acid (KR-S-009) |  |
|  | CCCCNC(=O)C(Oc1nc(OC)cc(OC)n1)c1ccccc1 (stereo not shown) [KR-S-020, N-Butyl-2-(4,6-dimethoxy-pyrimidin-2-yloxy)-2-phenyl-acetamide] | better effects than KR-S-015 |  |
| 97 | COC(=O)C(C)Oc1nc(C)c(Cl)c(OC)n1 (stereo not shown) [Formula 3, methyl 2-(5-chloro-4-methoxy-6-methylpyrimidin-2-yloxy)propanoate] |  |  |
| 71 | COC(=O)C(Oc1nc(OC)cc(OC)n1)c1cccs1 (stereo not shown) [Formula 6, methyl 2-(4,6-dimethoxypyrimidin-2-yloxy)-2-(thiophen-2-yl)acetate] |  |  |
| 90 | COc1nc(OCc2ccccc2)nc(OC)c1C(N)=O [Formula 9, 2-(benzyloxy)-4,6-dimethoxypyrimidine-5-carboxamide] |  |  |
| 99 | COc1cc(OC)nc(OC(C(=O)O)c2ccccc2)n1 (stereo not shown) [Formula 7, 2-(4,6-dimethoxypyrimidin-2-yloxy)-2-phenylacetic acid] |  |  |
|  | COc1cc(OC)nc(OC(C(=O)O)c2ccccc2)n1 (stereo not shown) [KR-S-017, (4,6-Dimethoxy-pyrimidin-2-yloxy)-phenyl-acetic acid] | better effects than KR-S-015 |  |
| 95 | COc1cc(OC)nc(Oc2ccncc2)n1 [Formula 11, 4,6-dimethoxy-2-(pyridin-4-yloxy)pyrimidine] |  |  |
|  | COc1cc(OC)nc(OC(C(=O)N2CCOCC2)C(C)C)n1 (stereo not shown) [KR-S-008, 2-(4,6-dimethoxy-pyrimidin-2-yloxy)-3-methyl-1-morpholin-4-yl-butan-1-one] | better effects than KR-S-015; also recorded: better than ester (KR-S-010) or acid (KR-S-009) |  |
| 76 | COc1cc(OC)nc(OCc2ccccc2Cl)n1 [Formula 10, 2-(2-chlorobenzyloxy)-4,6-dimethoxypyrimidine] |  |  |
| 54 | COc1cc(OC)nc(Oc2cccnc2N)n1 [Formula 15, 3-(4,6-dimethoxypyrimidin-2-yloxy)pyridin-2-amine] |  |  |
| 82 | COC(=O)C(Oc1nc(OC)cc(OC)n1)C(C)C (stereo not shown) [Formula 5, methyl 2-(4,6-dimethoxypyrimidin-2-yloxy)-3-methylbutanoate] |  |  |

| Compound | inhibition at 0.1 µM [1] [%] | amount of gp96 protein existing on a cell surface (HL-60 cell lines) | other results |
| --- | --- | --- | --- |
| CC(C)(C)Oc1cc(OC(C)(C)C)nc(Oc2cccnc2)n1 [Formula 12, 4,6-di-tert-butoxy-2-(pyridin-3-yloxy)pyrimidine] | 86 |  |  |
| CC(C)(C)Oc1ncc(-c2ccccn2)c(OC(C)(C)C)n1 [Formula 13, 2,4-di-tert-butoxy-5-(pyridin-2-yl)pyrimidine] | 86 |  |  |
